Assay results from patent US20080200531A1, “CDKI pathway inhibitors as inhibitors of tumor cell growth” (priority 2006, published 2008).

Legend:
[1] = system: p21-induced CMV-GFP expression (CDKI pathway); test: CMV-GFP reporter assay for p21-induced transcription (HTS) in HT1080 p21-9 derived reporter cell line; type: cell-based, human; conditions: for anti-CDKI pathway activity in the reporter assay (induction of CMV-GFP expression in response to p21): libraries screened at 20 μM
Excerpt: As described in a co-pending patent application PCT/US06/0 1046, we have developed a high-throughput screening (HTS) procedure for compounds inhibiting the CDKI pathway. This procedure utilizes a highly sensitive reporter cell line that was generated by infecting HT1080 p21-9 cells, a derivative of HT1080 fibrosarcoma cells that express p21 from a promoter induced by a physiologically neutral β-galactoside IPTG (isopropyl-β-thio-galactoside) with a lentiviral vector that expresses Green Fluorescent Protein (GFP) from the CDKI-inducible cytomegalovirus (CMV) promoter, followed by subcloning of GFP positive cells and monitoring the induction of GFP expression by IPTG. A cell line showing approximately 10-fold increase in GFP upon the addition of IPTG was used for HTS in a 96-well format.
This reporter line was used to screen two diversified small-molecule libraries developed by ChemBridge Corp., Microformat 04 and DiverSet, each comprising 50,000 compounds. These diversified libraries were rationally chosen by ChemBridge by quantifying pharmacophores in a collection of >500,000 drug-like molecules, using a version of Chem-X software to maximize the pharmacophore diversity. The Microformat 04 collection was designed to complement the chemical space covered by the older DiverSet library. ChemBridge libraries have been successfully used by numerous industrial and academic researchers, in a variety of cell-based and cell-free assays. The ChemBridge libraries were screened at 20 μM concentration, a conventional concentration for cell-based screening of these libraries. 62 of 100,000 ChemBridge compounds were identified by HTS and verified as inhibiting the induction of CMV-GFP expression in response to p21. This low hit rate (0.06%) indicates a high selectivity of our assay.
In this experiment, HT1080 p21-9 cells that express firefly luciferase from a CDKI-responsive promoter of cellular NK4 gene were cultured with IPTG for two days, which is sufficient for near-maximal induction of NK4 (Poole et al., supra).

[2] = system: NFκB p50 and p65 subunits; test: TransAM NFκB p65 and p50 Chemi Transcription Factor Assay (oligonucleotide binding); type: cell-based; conditions: TNFα-induced or basal
Excerpt: We also tested if these compounds could act as the inhibitors of NFκB, by measuring cellular levels of p50 or p65 subunits binding oligonucleotides containing NFκB consensus binding site, using ACTIVE MOTIF TransAM™ NFκB p65 Chemi and NFκB p50 Chemi Transcription Factor Assay Kits.

[3] = system: HT1080 p21-9 cells; test: FACS analysis of DNA content and GF7 mitotic staining; type: cell-based, human
Excerpt: The combination of p21 and SNX9-class compounds leads to both G1 and G2/M arrest, at the levels expected for the combined effects of p21 and SNX9 (FIG. 6).

[4] = system: HCT116 colon carcinoma; test: 3-day growth inhibition assay (Hoechst 33342), HCT116; type: cell-based; conditions: Homo sapiens, HCT-116, 72 h, 3 days, read-out: growth inhibition (decrease in cell number relative to untreated cells)
Experimental: (§1) The assays were carried out in 96-well plates, in triplicates; the plated cell numbers for each cell line were determined in preliminary experiments to assure exponential growth over the 3-day period of the assay. The cell numbers were measured by staining DNA of attached cells with Hoechst 33342, and the results for each dose were expressed as the decrease in cell number relative to untreated cells. For some of the tumor/normal cell line combinations, the assays were repeated using CellTiter-Glo viability assay (Promega), with the same results.

[5] = system: HT1080 fibrosarcoma; test: 3-day growth inhibition assay (Hoechst 33342), HT1080; type: cell-based; conditions: Homo sapiens, HT-1080, 72 h, 3 days, read-out: growth inhibition (decrease in cell number relative to untreated cells)
Experimental: as §1

[6] = system: isogenic human fibroblast cell lines (untransformed, partially transformed, fully transformed); test: Dose-dependent growth inhibition of three isogenic human fibroblast cell lines with increasing neoplastic transformation; type: cell-based; conditions: 3-day assay, Hoechst 33342
Excerpt: To determine if tumor-specific growth inhibitory activity of SNX9 class compounds could be due to the inhibition of a specific CDK, we took advantage of the availability of selective inhibitors for some of the CDK proteins. Among these enzymes, CDK1, CDK2 and CDK4/CDK6 (the latter two CDKs are closely related to each other and interact with the same class of cyclins), have been used as targets for developing specific inhibitors, with potential anticancer activity. In contrast, CDK3 has not been used as a target for developing selective inhibitors. We have obtained commercially available selective inhibitors of CDK1 (CGP74514A) (Calbiochem Cat. No. 217696), CDK2 (CVT-313) (Calbiochem Cat. No. 238803), and CDK4 (NSC 625987) (Calbiochem Cat. No. 219477), and tested them, along with a broad-specificity CDK inhibitor flavopiridol, and with SNX14, SNX9 and SNX9-1, for growth inhibition of normal and transformed fibroblasts.
This analysis was done using a set of three isogenic human fibroblast cell lines with increasing degrees of neoplastic transformation (immortal but untransformed, partially transformed, and fully transformed).

[7] = system: WI-38 and BJ-EN fibroblasts vs HT1080, HCT116, C33-A, Calu-6; test: 3-day growth inhibition assay (Hoechst 33342), normal fibroblasts vs tumor cell lines; conditions: 3-day assay, WI-38, BJ-EN vs HT1080, HCT116, C33-A
Experimental: as §1

[8] = system: HMEC primary cultures, MCF-7 and MDA231; test: 3-day growth inhibition assay (Hoechst 33342), normal mammary epithelial cells vs breast carcinoma lines; conditions: 3-day assay; HMEC vs MCF-7 and MDA231
Experimental: as §1

SMILES | normalized GFP expression without p21 induction ([1]; in the absence of IPTG) | normalized GFP expression with p21 induction ([1]; in the presence of IPTG, three days of p21 induction) | anti-CDKI pathway activity in the reporter assay (induction of CMV-GFP expression in response to p21) [1] | NFκB activity (p50 or p65 binding to NFκB consensus oligonucleotide) [2] | mitotic fraction (GF7 antibody staining) ([3]; SNX9-treated cells) | G2/M fraction (FACS analysis of DNA content) ([3]; SNX9 alone) | inhibition at 5 µM [4] | inhibition at 5 µM [5] | selectivity of growth inhibition for transformed cell lines relative to immortal but untransformed fibroblasts [6] | tumor selectivity of growth inhibition, tumor cells vs normal fibroblasts [7] | tumor selectivity of growth inhibition, normal vs transformed mammary cells [8]
Cc1[nH]c2c(Cl)cccc2c1CCN [SNX9] | does not inhibit promoter function when p21 is not induced | pronounced inhibition of transcription by p21 | showed anti-CDKI pathway activity in the reporter assay | no significant effect | increase in the mitotic fraction | pronounced increase in the G2/M fraction | ~100% | ~100% | pronounced selectivity for partially transformed or fully transformed cell lines | inhibited all the tumor cells to a greater extent than normal fibroblasts | clear tumor selectivity
NCCc1c[nH]c2c(Cl)cc(Cl)cc12 [SNX9-1] |  |  | showed anti-CDKI pathway activity in the reporter assay |  |  |  |  |  | pronounced selectivity for partially transformed or fully transformed cell lines | inhibited all the tumor cells to a greater extent than normal fibroblasts | 
